The values below come from PubChem BioAssay (NCI).

Test systems include 786-0 renal; HCT-15 colon; KM20L2 colon; LOX IMVI melanoma; M19-MEL melanoma; NCI-H23 lung; NCI-H522 lung; RXF 393 renal; RXF-631 renal; SK-MEL-28 melanoma; UACC-257 melanoma; IGROV1 ovarian.
Holding throughout (assay): NCI anticancer screen, dose series, 48 h

Structures are written as SMILES. Values joined by “and” are separate entries in the source; they are usually repeats but may differ in a detail not shown here. Equal entries are not always repeated.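 Growth conditions: 96-well plates. Treatment: test compound, 48 hours, 5 concentrations. Analysis: linear interpolation between bracketing concentrations; unreached endpoints set to highest concentration. The concentration for 50% growth inhibition is given as GI50. Definition used: TGI = concentration required for complete inhibition of growth.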 Where only a bound is given, the exact number is not on record here.

`N#C/C(=C\c1ccccc1Br)C(=O)c1ccccc1`: the TGI is 30.5 µM with 786-0 renal; above 47.2 µM in the assay on HCT-15 colon; above 100 µM with KM20L2 colon; 28.3 µM in the assay with LOX IMVI melanoma; above 89.5 µM with M19-MEL melanoma; above 62.2 µM in the assay on NCI-H23 lung. Also, the TGI in the assay with NCI-H522 lung is above 100 µM; with RXF 393 renal, above 100 µM; in the assay on RXF-631 renal, above 100 µM; in the assay on SK-MEL-28 melanoma, above 59.1 µM; in the assay with UACC-257 melanoma, above 100 µM.
As to `CCN(CC)CCNc1ccc2ncn3c4cc(=O)ccc4c(O)c1c23`, the TGI was 14.9 µM in the assay with 786-0 renal; 17 µM in the assay on HCT-15 colon; 24.3 µM in the assay on IGROV1 ovarian; 16.4 µM with KM20L2 colon; 5.91 µM in the assay on LOX IMVI melanoma; 16.5 µM with M19-MEL melanoma. The TGI is 14.6 µM in the assay with NCI-H23 lung; 5.36 µM in the assay with NCI-H522 lung; 3.68 µM with RXF 393 renal; 12.5 µM with RXF-631 renal; 16.9 µM with SK-MEL-28 melanoma; 17.8 µM in the assay with UACC-257 melanoma.
For `CCCCCCCCCCSCC(CO)NC(=O)/C=C/c1c(C)[nH]c(=O)[nH]c1=O` (stereo not given), the GI50 in the assay with HCT-15 colon is 5.55 µM and 14.7 µM; in the assay on NCI-H23 lung, 1.76 µM and 5.54 µM; with UACC-257 melanoma, 1.77 µM and 3.82 µM. Besides, the TGI in the assay with HCT-15 colon is above 50 µM; in the assay with IGROV1 ovarian, above 50 µM; in the assay with KM20L2 colon, above 50 µM; in the assay with LOX IMVI melanoma, 23.8 µM and > 50 µM; in the assay on M19-MEL melanoma, 14.8 µM and > 39.5 µM; in the assay with NCI-H23 lung, 14.3 µM and > 50 µM. Further, the TGI is 1.68 µM and 6.76 µM in the assay with NCI-H522 lung; above 25.7 µM in the assay with RXF 393 renal; above 50 µM with SK-MEL-28 melanoma; above 50 µM with UACC-257 melanoma.
As to `O=C1C[C@H](c2ccc(O)c(O)c2)Oc2cc(O)cc(O)c21`, the TGI in the assay with 786-0 renal, with HCT-15 colon, in the assay on IGROV1 ovarian, with KM20L2 colon, in the assay with LOX IMVI melanoma and in the assay with M19-MEL melanoma was above 100 µM in each case. Moreover, the TGI in the assay with NCI-H23 lung, in the assay on NCI-H522 lung, in the assay with RXF 393 renal, with RXF-631 renal, in the assay on SK-MEL-28 melanoma and in the assay on UACC-257 melanoma was above 100 µM throughout.
As for `COC(=O)C1C2CC3C(OC(=O)C31)C2OC(=O)[C@](OC)(c1ccccc1)C(F)(F)F` (stereo not given in full), the TGI with 786-0 renal, in the assay with HCT-15 colon, in the assay with IGROV1 ovarian, with KM20L2 colon, in the assay on LOX IMVI melanoma and with M19-MEL melanoma was above 100 µM in each case. Further, the TGI in the assay with NCI-H23 lung, with NCI-H522 lung, with RXF 393 renal, in the assay on RXF-631 renal, in the assay with SK-MEL-28 melanoma and in the assay with UACC-257 melanoma was above 100 µM throughout.
Regarding `O=C1NC2(C=Cc3c(ccc4ccccc34)O2)Oc2ccccc21` (stereo not given), the TGI with 786-0 renal is above 100 µM; in the assay on HCT-15 colon, 71.2 µM; with IGROV1 ovarian it was above 100 µM; in the assay with KM20L2 colon, above 100 µM; in the assay with LOX IMVI melanoma, 39.9 µM; in the assay on M19-MEL melanoma, above 100 µM. The TGI was 92.3 µM with NCI-H23 lung, 38.8 µM with NCI-H522 lung, 43.3 µM in the assay with RXF 393 renal and above 100 µM with SK-MEL-28 melanoma.
Turning to `c1ccc(C2[C@@H]3CCCc4ccccc4C3=NN2c2ccccc2)cc1` (stereo not given in full), the TGI with 786-0 renal, in the assay with HCT-15 colon, in the assay on IGROV1 ovarian, in the assay on KM20L2 colon, in the assay on LOX IMVI melanoma and with M19-MEL melanoma was above 100 µM throughout. Besides, the TGI in the assay with NCI-H23 lung, in the assay on NCI-H522 lung, with RXF 393 renal, in the assay with SK-MEL-28 melanoma and with UACC-257 melanoma was above 100 µM each time.
Turning to `CC(=O)C1(O)Cc2c(O)c3c(c(O)c2C(OC2CC(N)C(O)C(C)O2)C1)C(=O)c1ccccc1C3=O` (stereo not given), the TGI with 786-0 renal is 0.0409 µM; in the assay on HCT-15 colon, 0.52 µM and 0.348 µM; in the assay with IGROV1 ovarian it was 0.525 µM and 0.503 µM; in the assay with KM20L2 colon, 0.203 µM; with LOX IMVI melanoma it was 0.243 µM and 0.0335 µM; in the assay on M19-MEL melanoma it was 0.121 µM. The TGI is 0.12 µM and 0.046 µM with NCI-H23 lung; 0.119 µM and 0.0672 µM in the assay with NCI-H522 lung; 0.553 µM and 0.0785 µM in the assay on RXF 393 renal; 0.49 µM and 0.367 µM with SK-MEL-28 melanoma; 0.451 µM and 0.324 µM in the assay with UACC-257 melanoma. The GI50 in the assay on HCT-15 colon is 0.0156 µM; in the assay on IGROV1 ovarian, 0.0383 µM; in the assay on LOX IMVI melanoma, 0.0214 µM; in the assay with NCI-H23 lung, below 0.012 µM; with NCI-H522 lung, 0.0183 µM; in the assay with RXF 393 renal, 0.15 µM and 0.0166 µM. Moreover, the GI50 with SK-MEL-28 melanoma is 0.151 µM and 0.049 µM; with UACC-257 melanoma, 0.0377 µM.
As for `CC(=O)CC(=O)/C=C/c1cccs1`, the TGI in the assay with 786-0 renal, with HCT-15 colon, in the assay with IGROV1 ovarian, in the assay on KM20L2 colon, in the assay on LOX IMVI melanoma and in the assay with M19-MEL melanoma was above 100 µM in each case. In addition, the TGI in the assay on NCI-H23 lung, with NCI-H522 lung and in the assay on UACC-257 melanoma was above 100 µM in each case.
Take `CC(=O)n1ccc2c(Cl)ncnc21`: the TGI with 786-0 renal, in the assay on HCT-15 colon, with IGROV1 ovarian, in the assay with KM20L2 colon, in the assay with LOX IMVI melanoma and in the assay on M19-MEL melanoma was above 100 µM throughout. For the same compound, the TGI was above 100 µM in the assay on NCI-H23 lung; above 54.4 µM in the assay with NCI-H522 lung; above 100 µM in the assay on RXF 393 renal; above 100 µM in the assay on RXF-631 renal; above 100 µM in the assay on SK-MEL-28 melanoma; above 100 µM in the assay with UACC-257 melanoma.
Turning to `C=CC(Br)(CBr)CCC(Br)C(C)C` (stereo not given), the TGI in the assay on 786-0 renal is 2.93 µM; in the assay with HCT-15 colon it was 17.9 µM; in the assay with IGROV1 ovarian, 11.1 µM; in the assay with LOX IMVI melanoma, 3.1 µM; in the assay with NCI-H23 lung it was 20.8 µM; with NCI-H522 lung, 3.46 µM. The results for the TGI in the assay on RXF 393 renal, in the assay on SK-MEL-28 melanoma and with UACC-257 melanoma were 20.3 µM, 16.8 µM and 24 µM, respectively.
In the case of `COC(=O)[C@H](CCSC)NC(=O)c1ccc(CNC(=O)/C(C)=C/c2ccccc2)cc1`, the TGI in the assay on 786-0 renal was 41.8 µM; in the assay on HCT-15 colon, above 100 µM; in the assay with IGROV1 ovarian, above 100 µM; in the assay with LOX IMVI melanoma, above 100 µM; in the assay with NCI-H23 lung, above 100 µM; with NCI-H522 lung it was 32.5 µM. For the same compound, the TGI was 51.1 µM with RXF 393 renal, 64.7 µM in the assay on SK-MEL-28 melanoma and 52.7 µM with UACC-257 melanoma.
Turning to `O=C1OC(=O)C2C1C(c1ccccc1[N+](=O)[O-])C=C(c1ccco1)N2c1ccncc1` (stereo not given), the TGI was determined as 3.97 µM in the assay on 786-0 renal; 12.8 µM in the assay with HCT-15 colon; 5.3 µM with IGROV1 ovarian; 3.82 µM in the assay on LOX IMVI melanoma; 26.2 µM in the assay with NCI-H23 lung; 6.17 µM in the assay with NCI-H522 lung. In addition, the TGI in the assay on RXF 393 renal is 19.1 µM; with SK-MEL-28 melanoma it was 24.5 µM; with UACC-257 melanoma, 6.84 µM.
With `c1ccc(CCn2cncn2)cc1`, the TGI with HCT-15 colon, in the assay with IGROV1 ovarian, in the assay with KM20L2 colon, in the assay with M19-MEL melanoma, with NCI-H23 lung and in the assay on NCI-H522 lung was above 100 µM throughout. The TGI in the assay with RXF-631 renal, in the assay on SK-MEL-28 melanoma and in the assay on UACC-257 melanoma was above 100 µM throughout.
As to `Brc1cccc[n+]1-c1ccc2cc(-[n+]3ccccc3Br)ccc2c1`, the TGI was 69 µM in the assay on 786-0 renal; above 100 µM in the assay on HCT-15 colon; 28 µM in the assay with IGROV1 ovarian; 34.7 µM in the assay on LOX IMVI melanoma; above 100 µM in the assay with NCI-H23 lung; above 100 µM in the assay on NCI-H522 lung. In addition, the TGI in the assay on RXF 393 renal is 87.6 µM; in the assay with SK-MEL-28 melanoma, above 100 µM; with UACC-257 melanoma, above 100 µM.
For `C/C=C1\CC(C(=O)OCC)CCCCCCCCCCC1=O` (stereo not given), the TGI is above 100 µM in the assay on 786-0 renal; above 100 µM in the assay on HCT-15 colon; above 100 µM in the assay on IGROV1 ovarian; 80.8 µM in the assay with LOX IMVI melanoma; above 100 µM in the assay on NCI-H23 lung; 81.5 µM with NCI-H522 lung. Further, the TGI with RXF 393 renal, in the assay with SK-MEL-28 melanoma and with UACC-257 melanoma was above 100 µM in each case.
With `COC[C@@H](Cc1ccc(OC)c(OC)c1)[C@@H](COC)Cc1ccc(OC)c(OC)c1`, the TGI with HCT-15 colon, in the assay with IGROV1 ovarian, with KM20L2 colon, in the assay on LOX IMVI melanoma, with M19-MEL melanoma and in the assay on NCI-H23 lung was above 100 µM each time. Further, the TGI with NCI-H522 lung, in the assay on RXF 393 renal, in the assay with SK-MEL-28 melanoma and in the assay with UACC-257 melanoma was above 100 µM throughout.
